# Measured values published in patent US7745390B2, “Antimicrobial peptides” (priority 2005, dated 2010).
# Square brackets hold non-standard residues; d marks the D form. Peptide text beside a SMILES is read from it.
# Key:
# S. aureus = experiment: Mouse wound model of luminescent S. aureus infection; format: in vivo, BALB/c mice
# Source text: In this protocol, BALB/c mice of 4-6 weeks of age were exposed to wounds on their backs, then inoculated with an infection of S. aureus, which had 10^5 cfu per pocket (2×10^7 […] DMEM) The S. aureus had been transfected with a plasmid containing luciferase as well as the substrate for luciferase. Using a special camera, light is detected from living bacteria in the wound. The light intensity is converted to a color scale. Controls received no peptide, and the treatment group received peptide at the indicated dose. Animals were imaged at 1, 3, 6 and 24 hrs.
# [1] = Degree of helicity by circular dichroism; format: physicochemical
# Procedure: For designing analogues of the present sequences, as taught herein, the Table also presents data on the degree of helicity of the active peptides, as measured by circular dichroism. It should be noted that a number of the active peptides listed in the figure are not alpha helices at all. At least one peptide tested was considered to be a random coil, with no detectible secondary structure evident in the circular dichroism measurement.
# The MIC values are for E. coli in 10 mM phosphate buffer. The peptides were derived by the inventors from granulysin helix 3. […] It contains an equal number of hydrophobic and positively charged amino acids, can adapt an αhelical structure, and is very amphipathic. In contrast, the remaining 3 peptides all retain activity in DMEM even in the presence of serum. These peptides contain more positive residues than hydrophobic residues. G12.21 contains 2 proline residues, G11.46 is based on a modification of the helix three sequence (RRVSRRFMRR) (SEQ ID NO: 91) with a 5 arginine extension at the NH2 terminus, and G14.15 includes loop 2/RRVSRRFMRR (SEQ ID NO: 91).
compound,measurement,setting,value
"CSCC[C@H](NC(=O)[C@H](Cc1ccccc1)NC(=O)[C@@H](CCCNC(=N)N)NC(=O)[C@@H](CCCNC(=N)N)NC(=O)[C@H](CO)NC(=O)[C@@H](NC(=O)[C@@H](CCCNC(=N)N)NC(=O)[C@@H](CCCNC(=N)N)NC(=O)[C@@H](CCCNC(=N)N)NC(=O)[C@@H](CCCNC(=N)N)NC(=O)[C@@H](CCCNC(=N)N)NC(=O)[C@@H](CCCNC(=N)N)NC(=O)[C@H](N)CCCNC(=N)N)C(C)C)C(=O)N[C@H](CCCNC(=N)N)C(=O)N[C@H](CCCNC(=N)N)C(=O)O [Peptide G11.46, rrrrrrrVSrrFMrr] (H-[dR][dR][dR][dR][dR][dR][dR]VS[dR][dR]FM[dR][dR]-OH; N-terminus and C-terminus assumed)",light units from S. aureus in wound,"S. aureus; 25 μg and 100 μg, data not shown",significant reduction in light units
same,light units from S. aureus in wound,"S. aureus; 100 μg, after 6 hrs.",light units approached levels obtained with the blank
same,recovery of bacteria,S. aureus; by 24 hours,some recovery of bacteria by 24 hours
same,% α-helix,[1]; Table 4,0%
same,secondary structure,[1]; aqueous solution or TFE where stated,random coils in aqueous solution or in TFE
